Source: ChEMBL document CHEMBL1145876, “New arylpiperazine derivatives with high affinity for alpha1A, D2 and 5-HT2A receptors” (Bioorg Med Chem Lett, 2003)

Key:
[1] = biological target: 5-hydroxytryptamine receptor 2A (Rattus norvegicus, UniProt P14842); experiment: Binding affinity towards 5-hydroxytryptamine 2A receptor using [3H]ketanserin
D(2) dopamine receptor = D(2) dopamine receptor (Rattus norvegicus, UniProt P61169); experiment: Binding affinity towards Dopamine receptor D2 in rat […] using [3H]spiperone; format: tissue-based
D(2) dopamine receptor, sequence (P61169 whole entry): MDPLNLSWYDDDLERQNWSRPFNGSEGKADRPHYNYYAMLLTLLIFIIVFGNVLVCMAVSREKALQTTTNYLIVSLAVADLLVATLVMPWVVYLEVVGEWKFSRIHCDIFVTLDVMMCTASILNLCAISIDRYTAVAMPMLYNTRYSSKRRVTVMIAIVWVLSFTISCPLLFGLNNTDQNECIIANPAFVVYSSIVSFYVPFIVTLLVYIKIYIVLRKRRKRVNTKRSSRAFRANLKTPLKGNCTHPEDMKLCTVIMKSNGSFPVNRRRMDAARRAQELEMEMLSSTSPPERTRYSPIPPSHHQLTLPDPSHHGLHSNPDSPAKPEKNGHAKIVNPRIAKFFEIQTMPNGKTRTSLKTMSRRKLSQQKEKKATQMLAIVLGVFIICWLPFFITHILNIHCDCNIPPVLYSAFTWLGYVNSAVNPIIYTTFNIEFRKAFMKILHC

5-hydroxytryptamine receptor 2A, sequence (P14842 whole entry): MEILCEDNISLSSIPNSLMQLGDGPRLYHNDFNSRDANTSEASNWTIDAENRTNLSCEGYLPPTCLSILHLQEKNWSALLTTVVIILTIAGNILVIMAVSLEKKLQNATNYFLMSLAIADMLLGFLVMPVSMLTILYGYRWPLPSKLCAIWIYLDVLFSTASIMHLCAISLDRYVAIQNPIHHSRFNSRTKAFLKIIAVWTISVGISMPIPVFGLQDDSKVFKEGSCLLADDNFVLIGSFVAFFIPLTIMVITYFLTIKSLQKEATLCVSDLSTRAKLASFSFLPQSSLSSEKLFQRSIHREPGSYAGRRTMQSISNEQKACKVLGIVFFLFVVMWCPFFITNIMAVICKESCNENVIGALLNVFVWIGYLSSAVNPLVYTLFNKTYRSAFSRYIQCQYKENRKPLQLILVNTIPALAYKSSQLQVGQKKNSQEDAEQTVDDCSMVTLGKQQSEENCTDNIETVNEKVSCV

Row | Compound | Ki [1] | Ki (D(2) dopamine receptor)
1 | COc1ccccc1N1CCN(CCCOc2ccc3c(OC)cc(=O)oc3c2)CC1 | 3090 nM | 17.8 nM
2 | COc1cc(=O)oc2cc(OCCCN3CCN(c4ccccn4)CC3)ccc12 | 537 nM | 129 nM
3 | COc1ccccc1N1CCN(CCCOc2ccc3c(C)cc(=O)oc3c2)CC1 | 174 nM | 11.7 nM
4 | COc1cc(=O)oc2cc(OCCCN3CCN(c4ncccn4)CC3)ccc12 | 138 nM | 47.9 nM

The next lines start with the values.

Row | Ki [1] | Ki (D(2) dopamine receptor) | Compound
5 | 2340 nM | 324 nM | Cc1cc(=O)oc2cc(OCCCN3CCN(c4ncccn4)CC3)ccc12
6 | 1950 nM | 562 nM | COc1cc(=O)oc2cc(OCCCN3CCN(c4ccccc4)CC3)ccc12
7 | 1070 nM | 81.3 nM | Cc1cc(=O)oc2cc(OCCCN3CCN(c4ccccn4)CC3)ccc12
8 | 933 nM | 45.7 nM | Cc1cc(=O)oc2cc(OCCCN3CCN(c4ccccc4)CC3)ccc12
